In PubChem BioAssay AID2060488 (Molecular Pharmacology Branch, DTP, NCI, 2025):
“And” between values parts separate entries of the source, which are not always exact repeats. Identical values can stand only once.

System: 966289-007-R4-J1-PDC complex spheroid viability
Test: Anticancer human tumor 966289-007-R4-J1-PDC patient-derived pancreatic adenocarcinoma cell line growth inhibition [GQUAD]
Settings: for viability, T/C: stronger effect = lower value
Source text: DNA G-quadruplex Stabilizer Agents in Combinations in Complex Spheroids
A high-throughput screen of multi-cell type tumor spheroids was designed to identify active combinations of DNA G-quadruplex stabilizer agents and targeted small molecules. Complex spheroids include a stromal component modeled by human endothelial cells (HUVEC) and fibroblasts modeled by human mesenchymal stem cells (MSCs). The concentration ranges selected for each drug and investigational agent were based upon clinically achievable concentrations if the clinical Cmax of the agent was known.
Compounds. The drugs and investigational agents: pidnarulex (CX-5461; NSC782164), APTO-253 (NSC789042), BRACO-19 (NSC847499), peposertib (NSC802822), ceralasertib (NSC780249), elimusertib (NSC800525), camonsertib (NSC841442), AZD-1390 (NSC803789), olaparib (NSC753686), talazoparib (NSC767125), ART-558 (NSC835418), sotorasib (NSC818433), MRTX-1133 (NSC836407), SN-38 (NSC673596), topotecan (NSC609699), etoposide (NSC141540), doxorubicin (NSC123127), gemcitabine (NSC613327), 5-fluorouracil (NSC19893), paclitaxel (NSC125973), vemurafenib (NSC761431), panobinostat (NSC761190), R-306465 (JNJ-16241199; NSC773264), adavosertib (NSC754352), TP-3654 (NSC805149), carboplatin (NSC241240), KSQ-4279 (NSC840948), and staurosporine (NSC755774) were obtained from the National Cancer Institute (NCI) Developmental Therapeutics Program Chemical Repository (34). The FDA-approved anticancer drug set is available from the NCI Developmental Therapeutics Program. […] The stock solutions were prepared in dimethyl sulfoxide (DMSO, Sigma-Aldrich, St. Louis, MO, cat. D2650) at 800-fold the tested concentration and stored at -70 degrees C prior to their use. All drugs and investigational agents were tested over a range starting from a high concentration at or near the clinical Cmax and decreasing in half-log increments. If the clinical Cmax for an agent had not been determined, the highest concentration tested was 10 microM.
2.3 Cell Culture. All cells were maintained in an incubator at 37 degrees C and 5% CO2 with 95% humidity. The PDC lines were cultured according to standard operating procedures established by the NCI PDMR. All PDCs were thawed and cultured in Matrigel-coated flasks prepared with a working solution of 1X Ham's F-12 nutrient mix, without supplementation (Invitrogen, cat. 11765054), 100 U/mL penicillin-streptomycin (Invitrogen, cat. 15140122), and 2.5% Matrigel (Corning Inc., cat. 354248) for the first three passages. The 857933-349-R-J2-PDC line was cultured in 6C/Colon 1B media, which includes advanced DMEM/F-12 (Thermo Fisher Scientific, cat. 12634028), 10 mM HEPES (Thermo Fisher Scientific, cat. 15630080), 1X GlutaMAX supplement (Thermo Fisher Scientific, cat. 35050061), 0.1 mg/mL primocin (InvivoGen, cat. ant-pm-2), 10% defined fetal bovine serum, heat inactivated (HyClone Laboratories Inc., cat. SH30070.03HI), 50% L-WRN conditioned media (ATCC, cat. CRL-3276), 1.25 mM N-Acetyl-L-cysteine (Sigma-Aldrich, cat. A9165), 10 mM nicotinamide (Sigma-Aldrich, cat. N0636), 1X B-27 supplement (Thermo Fisher Scientific, cat. 17504044), 1X N-2 supplement (Thermo Fisher Scientific, cat. 17502048), 10 microM Y-27632 dihydrochloride (Tocris Bioscience, cat. 1254), and 50 ng/mL human EGF recombinant protein (Thermo Fisher Scientific, cat. PHG0311). The 485176-168-R4-J1-PDC line was cultured in Panc media, which includes all 6C/Colon 1B media components plus 100 ng/mL human FGF-10 (Thermo Fisher Scientific, cat. 100-26), 500 nM SB-431542 (Selleckchem, cat. S1067), and gastrin (Tocris, cat. 3006).
[…]
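Note: spheroids exposed to the agents for seven days before readout.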
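Throughout, for viability, T/C: percent viability relative to DMSO vehicle control wells taken as 100%.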

SMILES: Nc1ccn(C2OC(CO)C(O)C2(F)F)c(=O)n1 (configuration not stated)
- viability, T/C (compound 0.0316 µM): 6.63% and 12% and 8.01%
- viability, T/C (compound 0.1 µM): 0.75% and 1.27% and 0.79%
- viability, T/C (compound 0.316 µM): 0.96% and 0.9% and 0.65%
- viability, T/C (compound 1 µM): 0.7% and 0.97% and 0.68%
- viability, T/C (compound 3.16 µM): 0.83% and 1.32% and 0.61%
- viability, T/C (compound 10 µM): 0.79% and 1.07% and 0.63%
- IC50 (curve of compound): < 31.6 nM
